Laboratory results published in paper PMC5380659, “Unique charge-dependent constraint on collagen recognition by integrin α10β1” (Matrix Biology, 2017).
Numbering of substitutions follows the chain as printed. Entries after “also recorded” stand apart in the source; their conditions may differ.

What was measured:
[1] = test system: C2C12-α10β1 cells; test: LDH-based SPBA of C2C12-α10β1 cell adhesion; parameters: species or system mouse; details: short THPs, 2 mM Mg^2 +, 1 h, Fig. 4B
Description: The mouse myoblast cell line, C2C12-α10β1 clone, expresses α10β1 as its sole collagen-binding integrin [16]. To investigate the binding of α10β1 to collagen in a cellular and whole integrin context, therefore, the adhesion of C2C12-α10β1 cells to Toolkits II and III was performed using two different approaches. First, SPBA was used, with lactate dehydrogenase to report the presence of adherent cells, after lysis, as described in Experimental. […] C2C12-α10B1 cells generally bound more prominently to those weaker peptides that supported just-observable binding of free I-domain. This may reflect avidity of the receptor-populated cell surface for the peptide-coated wells, or perhaps up-regulation of integrin affinity following receptor engagement. It is also possible that some cell binding reflects specific indirect interactions. For example, fibronectin, available either by intrinsic expression or from the serum supplement, binds well to II-44, and can also bind integrin αVβ3 [21].
Fig. 2 Binding of α10β1-transfected C2C12 cells to Collagen Toolkits. 96-well plates were coated with peptides as for Fig. 1, then C2C12-α10β1 cells (5 × 10^4 per well) were added and incubated for 1 h in the presence of either 2 mM MgCl2 or 2 mM EDTA as above. A: binding to Toolkit II. B: binding to Toolkit III.
The mouse myoblast cell line, C2C12, (control and transfectants, C2C12-α1β1, C2C12-α2β1, C2C12-α10β1 or C2C12-α11β1) was maintained in RPMI medium containing 10% fetal bovine serum, 2 mM glutamine, 100 IU/ml penicillin, 100 μg/ml streptomycin, and 2.5 μg/ml amphotericin. Cells were harvested by centrifugation, washed, and suspended at 0.5 × 10^6/ml in Tris-buffered saline supplemented with 5.5 mM glucose and either 2 mM EDTA or 2 mM MgCl2. SPBA was performed as follows: 100 μl of the cell suspension was added to peptide-coated wells [42] at 20 °C for 60 min. Cell adhesion was determined colorimetrically after lysis, using a lactate dehydrogenase (LDH)-based cell detection kit (Roche Diagnostics) according to the supplier's instructions.

[2] = target: T1, wild type α10 I domain (Homo sapiens, UniProt O75578); test: Concentration-dependent SPBA (KD) of wild-type α10 I domain; format: binding; details: SPBA concentration dependence; for Saturation / quality of binding, wild type α10 I domain: up to 100 μg/ml; for KD, wild type α10 I domain: I domain up to 100 μg/ml, Fig. 9C and D
T1 construct: Recombinant human α10 I domain-encoding plasmid (pGEX-2T-α10 I domain) was cloned using standard procedures; made in house; host or cells: bacteria (pGEX-2T plasmid; the Origami strain is stated only for α2 I domains)
T1 sequence (O75578 167-350 limits assumed): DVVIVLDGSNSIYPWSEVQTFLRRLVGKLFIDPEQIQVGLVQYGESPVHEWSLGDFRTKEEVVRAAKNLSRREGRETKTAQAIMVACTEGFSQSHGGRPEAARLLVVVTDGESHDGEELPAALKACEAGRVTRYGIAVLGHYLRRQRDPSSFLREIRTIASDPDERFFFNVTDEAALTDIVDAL
Description: (§1) 96-well plates were prepared as for Fig. 1. A: binding to Toolkit II, B: binding to Toolkit III.
(§2) I domain adhesion was determined colorimetrically, as described, here termed solid phase binding assay (SPBA). Peptides were coated at 10 μg/ml for 1 h at 22 °C on Immulon-2 HB 96-well plates (Thermo Life Sciences, Basingstoke, UK), and blocked for 1 h with 200 μl of TBS containing 50 mg/ml bovine serum albumin. […] Wells were washed five times with 200 μl of adhesion buffer containing MgCl2 or EDTA, before adding 100 μl of adhesion buffer containing the anti-GST-HRP conjugate at 1:10,000 dilution for 1 h at room temperature. After washing, colour was developed using an ImmunoPure TMB Substrate Kit (Pierce) according to the manufacturer's instructions.

[3] = target: T2, R215Q α10 I domain (Homo sapiens, UniProt O75578, R237Q); test: Concentration-dependent SPBA (KD) of α10-R215Q I domain; format: binding; details: SPBA concentration dependence; for Saturation / quality of binding, R215Q α10 I domain: up to 100 μg/ml; for KD, R215Q α10 I domain: I domain up to 100 μg/ml, Fig. 9C and D
T2 construct: made in house; host or cells: bacteria
T2 sequence (O75578 167-350 R237Q): T1 sequence (O75578 167-350 limits assumed) with R71Q
Description: as §1, §2

[4] = test system: α2β1; parameters: method as in 4 sources, ref [8], [10] = [8]; PMID 16326707; doi:10.1074/jbc.M509818200; 8 Raynal N. Hamaia S.W. Siljander P.R. Maddox B. Peachey A.R. Fernandez R. Foley L.J. Slatter D.A. Jarvis G.E. Farndale R.W. Use of synthetic peptides to locate novel integrin alpha2beta1-binding moti || [10]; PMID 16043429; doi:10.1074/jbc.M502431200; 10 Kim J.K. Xu Y. Xu X. Keene D.R. Gurusiddappa S. Liang X. Wary K.K. Hook M. A novel binding site in collagen type III for the integrins, alpha 1beta 1 and alpha 2beta 1 J. Biol. Chem. 280 2005 32512 ||| ref not given ||| ref [4] = [4]; PMID 19693543; doi:10.1007/s00441-009-0834-6; 4 Barczyk M. Carracedo S. Gullberg D. Integrins Cell Tissue Res. 339 1 2010 269 280 19693543 10.1007/s00441-009-0834-6 PMC2784866 ||| ref [12] = [12]; PMID 22654115; doi:10.1074/jbc.M112.353144; 12 Hamaia S.W. Pugh N. Raynal N. Nemoz B. Stone R. Gullberg D. Bihan D. Farndale R.W. Mapping of potent and specific binding motifs, GLOGEN and GVOGEA, for integrin alpha1beta1 using collagen toolkits; details: cited from earlier work; for Binding to integrin α2β1, previously described: ref not given

Substance	Adhesion of C2C12-α10β1 cells to short triple-helical peptides [1]	Saturation / quality of binding, wild type α10 I domain [2]	Saturation / quality of binding, R215Q α10 I domain [3]	Binding to integrin α2β1, previously described [4]	KD, wild type α10 I domain [2] [µg/mL]	KD, R215Q α10 I domain [3]	Binding to α2β1 ([4]; ref [8], [10])
GFOGER [THP containing GFOGER served as positive control, reference compound]	less well	did not saturate at up to 100 μg/ml; also recorded: good ligand	did not saturate at up to 100 μg/ml; also recorded: good ligand	good binding motifs			
GLOGEN [short THP containing GLOGEN]	bound strongly	saturation binding	enhanced binding of R215Q to GROGER but not GLOGEN; also recorded: saturation binding	good binding motifs	~10	~10 µg/mL	
GROGER [short triple-helical peptide containing GROGER]	absence of binding	bound poorly	enhanced binding; also recorded: bound quite well	good binding motifs	> 100	about 50 μg/ml	relatively good α2β1-binding motif
